From patent US10364245B2 (CHIESI FARMACEUTICI S.p.A., priority 2017, dated 2019) come the findings set out here.

Counter-ions that a name gives are not always drawn.

Experiment [1] has as its target T1, p38 alpha (Homo sapiens, UniProt Q16539).
T1 construct: purchased Invitrogen PV3304
The experiment can be described thus: P38 alpha enzyme inhibition assay (Alphascreen kinase activity assay). Conditions: 100 pM p38 alpha, 2 hours preincubation at 25° C., 250 μM ATP, ATF-2 fusion protein; read-out: p38α inhibition. Type of experiment: biochemical. The procedure: P38 Alpha Enzyme Inhibition Assay
The inhibitory activity of compounds was determined using an Alphascreen® (Perkin Elmer) based kinase activity assay. Kinase reactions consisted of 25 mM HEPES pH 7.5, 10 mM MgCl2, 100 μM Na3VO4, 2 mM DTT, 0.05 mg/ml Tween 20, 100 pM p38 alpha (Invitrogen, PV3304), 1% DMSO and 0.3 μg/ml ATF-2 fusion protein (New England Biolabs, 9224). Compounds were incubated under these conditions for 2 hours, at 25° C., prior to the initiation of the kinase activity by the addition of the 250 μM ATP. Reaction volumes were 20 μL. After 1 hr at 25° C. reactions were stopped by the adding 10 μL of 25 mM HEPES pH 7.5 containing 62.5 mM EDTA, 0.05% Triton X-100, 10% BSA and 0.83 ng/uL anti-phospho-ATF2 antibody (Abcam, ab28812). Detection was performed by measuring luminescence following the addition of Alphascreen Donor beads (Perkin Elmer 6765300) and Protein A Alphascreen Acceptor beads (Perkin Elmer 6760137), both at a final concentration of 20 ug/ml. IC50 values were determined from concentration-response curves.
For orientation: Alpha assays give light when donor and acceptor beads are brought close together.

The test system of experiment [2] is Peripheral Blood Mononuclear Cells (PBMCs), TNFα release. The experiment can be described thus: LPS-stimulated PBMC TNFα release assay. It counts as cell-based. Conditions: human PBMC, LPS (10 ng/ml), 18 h, compound 1 h before LPS; read-out: LPS-stimulated PBMC TNFα release inhibition. How it is done:
LPS-Stimulated PBMC TNFα Release Assay
Peripheral Blood Mononuclear Cells (PBMCs) were isolated from healthy human volunteer blood using a standard density gradient centrifugation technique. Citrated blood was placed onto Histopaque™ and centrifuged. The PBMCs were removed from the density gradient interface and washed in phosphate buffered saline (PBS). The PBMCs were suspended in RPMI 1640 medium (without serum), dispensed into a 96-well plate and incubated at 37° C. for 3 h in a humidified incubator. After incubation, the medium was replaced (with medium containing 1% foetal bovine serum) and the plate incubated at 37° C., for 1 h, in the presence of test compound or the appropriate vehicle. LPS (10 ng/ml), or an appropriate vehicle control, was then added to the cells and the plate returned to the incubator for 18 h. Cell-free supernatants were removed and assayed for TNFα levels using MSD plates on the Sector Imager 6000 (MesoScale).
A dose response curve to each test compound was performed and the effect of compound in each experiment was expressed as a percentage inhibition of the control TNFα release. Dose response curves were plotted and compound potency (IC50) was determined. Compounds were tested in at least three separate experiments.

T1 sequence (Q16539 whole entry): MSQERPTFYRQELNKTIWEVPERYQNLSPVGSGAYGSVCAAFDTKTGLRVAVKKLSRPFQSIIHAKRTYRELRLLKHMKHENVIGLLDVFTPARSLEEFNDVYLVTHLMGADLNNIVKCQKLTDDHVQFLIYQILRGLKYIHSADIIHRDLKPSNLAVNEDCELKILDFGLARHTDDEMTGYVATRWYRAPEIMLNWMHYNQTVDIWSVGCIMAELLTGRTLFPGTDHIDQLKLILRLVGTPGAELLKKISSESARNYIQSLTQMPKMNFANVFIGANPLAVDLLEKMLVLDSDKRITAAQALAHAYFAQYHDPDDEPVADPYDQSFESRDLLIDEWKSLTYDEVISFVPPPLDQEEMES

Turning to `CN(C)CCNC(=O)c1nc(NC(=O)N[C@H]2CC[C@@H](Oc3ccc4nnc(C(C)(C)C)n4c3)c3ccccc32)cc(C(C)(C)C)n1` [Example 1, 4-(tert-Butyl)-6-(3-((1S,4R)-4-((3-(tert-butyl)-[1,2,4]triazolo[4,3-a]pyridin-6-yl)oxy)-1,2,3,4-tetrahydronaphthalen-1-yl)ureido)-N-(2-(dimethylamino)ethyl)-pyrimidine-2-carboxamide], the IC50 in experiment [1] was < 1 nM; in experiment [2], 1 to 5 nM.
For `CCC(C)(C)c1nnc2ccc(O[C@@H]3CC[C@H](NC(=O)Nc4cc(C(C)(C)C)nc(C(=O)NCCN(C)CCO)n4)c4ccccc43)cn12` [Example 2, 4-(tert-Butyl)-N-(2-((2-hydroxyethyl)(methyl)amino)ethyl)-6-(3-((1S,4R)-4-((3-(tert-pentyl)-[1,2,4]triazolo[4,3-a]pyridin-6-yl)oxy)-1,2,3,4-tetrahydronaphthalen-1-yl)ureido)pyrimidine-2-carboxamide] the same measures were < 1 nM and 1 to 5 nM.
Turning to `CCC(C)(C)c1nnc2ccc(O[C@@H]3CC[C@H](NC(=O)Nc4cc(C(C)(C)C)nc(C(=O)NCCN(C)C)n4)c4ccccc43)cn12` [Example 3, 4-(tert-Butyl)-N-(2-(dimethylamino)ethyl)-6-(3-((1S,4R)-4-((3-(tert-pentyl)-[1,2,4]triazolo[4,3-a]pyridin-6-yl)oxy)-1,2,3,4-tetrahydronaphthalen-1-yl)ureido)pyrimidine-2-carboxamide], the IC50 was < 1 nM in experiment [1] and 1 to 5 nM in experiment [2].
For `CCC(C)(C)c1nnc2ccc(O[C@@H]3CC[C@H](NC(=O)Nc4cc(C(C)(C)C)nc(C(=O)NCCN(C)CCOC)n4)c4ccccc43)cn12` [Example 4] the same measures were < 1 nM and 1 to 5 nM.
For the compound `CCC(CC)c1nnc2ccc(O[C@@H]3CC[C@H](NC(=O)Nc4cc(C(C)(C)C)nc(C(=O)NCCN(C)C)n4)c4ccccc43)cn12` [Example 5, 4-(tert-Butyl)-N-(2-(dimethylamino)ethyl)-6-(3-((1S,4R)-4-((3-(pentan-3-yl)-[1,2,4]triazolo[4,3-a]pyridin-6-yl)oxy)-1,2,3,4-tetrahydronaphthalen-1-yl)ureido)pyrimidine-2-carboxamide], the IC50 in experiment [1] was < 1 nM; in experiment [2] it was 1 to 5 nM.
For the compound `CCC(CC)c1nnc2ccc(O[C@@H]3CC[C@H](NC(=O)Nc4cc(C(C)(C)C)nc(C(=O)NCCN5CC(OC)C5)n4)c4ccccc43)cn12` [Example 6, 4-(tert-Butyl)-N-(2-(3-methoxyazetidin-1-yl)ethyl)-6-(3-((1S,4R)-4-((3-(pentan-3-yl)-[1,2,4]triazolo[4,3-a]pyridin-6-yl)oxy)-1,2,3,4-tetrahydronaphthalen-1-yl)ureido)pyrimidine-2-carboxamide], the IC50 was < 1 nM in experiment [1] and 1 to 5 nM in experiment [2].
For the compound `COCC(C)(C)c1nnc2ccc(O[C@@H]3CC[C@H](NC(=O)Nc4cc(C(C)(C)C)nc(C(=O)NCC(C)(C)N(C)C)n4)c4ccccc43)cn12` [Example 7, 4-(tert-Butyl)-N-(2-(dimethylamino)-2-methylpropyl)-6-(3-((1S,4R)-4-((3-(1-methoxy-2-methylpropan-2-yl)-[1,2,4]triazolo[4,3-a]pyridin-6-yl)oxy)-1,2,3,4-tetrahydronaphthalen-1-yl)ureido)pyrimidine-2-carboxamide], the IC50 in experiment [1] is < 1 nM; in experiment [2], 1 to 5 nM.
Consider `CC[C@H](C)c1nnc2ccc(O[C@@H]3CC[C@H](NC(=O)Nc4cc(C(C)(C)C)nc(C(=O)NCC(C)(C)N(C)C)n4)c4ccccc43)cn12` [Example 8, 4-(tert-Butyl)-6-(3-((1S,4R)-4-((3-((S)-sec-butyl)-[1,2,4]triazolo[4,3-a]pyridin-6-yl)oxy)-1,2,3,4-tetrahydronaphthalen-1-yl)ureido)-N-(2-(dimethylamino)-2-methylpropyl)pyrimidine-2-carboxamide], for which the IC50 was < 1 nM in experiment [1] and 1 to 5 nM in experiment [2].
Turning to `CC(C)(C)c1cc(NC(=O)N[C@H]2CC[C@@H](Oc3ccc4nnc(C(C)(C)C)n4c3)c3ccccc32)cc(C(=O)NCCN2CCC(O)CC2)n1` [Example 9, 6-(tert-Butyl)-4-(3-((1S,4R)-4-((3-(tert-butyl)-[1,2,4]triazolo[4,3-a]pyridin-6-yl)oxy]-1,2,3,4-tetrahydronaphthalen-1-yl}ureido)-N-(2-(4-hydroxypiperidin-1-yl)ethyl)picolinamide], the IC50 in experiment [1] was < 1 nM; in experiment [2], 1 to 5 nM.
The matching figures for `CCN(CC)c1nnc2ccc(O[C@@H]3CC[C@H](NC(=O)Nc4cc(C(=O)NCCN(C)C)nc(C(C)(C)C)c4)c4ccccc43)cn12` [Example 10, 6-(tert-Butyl)-4-(3-((1S,4R)-4-((3-(diethylamino)-[1,2,4]triazolo[4,3-a]pyridin-6-yl)oxy)-1,2,3,4-tetrahydronaphthalen-1-yl)ureido)-N-(2-(dimethylamino)ethyl)picolinamide]: < 1 nM and 1 to 5 nM.
As for `CN1CCN(c2nc(NC(=O)N[C@H]3CC[C@@H](Oc4ccc5nnc([C@]6(C)CCCN6C)n5c4)c4ccccc43)cc(C(C)(C)C)n2)CC1` [Example 31, 1-(6-(tert-Butyl)-2-(4-methylpiperazin-1-yl)pyrimidin-4-yl)-3-((1S,4R)-4-((3-((S)-1,2-dimethylpyrrolidin-2-yl)-[1,2,4]triazolo[4,3-a]pyridin-6-yl)oxy)-1,2,3,4-tetrahydronaphthalen-1-yl)urea], the IC50 in experiment [2] is > 5 nM.
For the compound `COCCN(C)C(C)(C)CNC(=O)c1nc(NC(=O)N[C@H]2CC[C@@H](Oc3ccc4nnc(C(C)(C)C)n4c3)c3ccccc32)cc(C(C)(C)C)n1` [Example 177, 4-(tert-butyl)-6-(3-((1S,4R)-4-((3-(tert-butyl)-[1,2,4]triazolo[4,3-a]pyridin-6-yl)oxy)-1,2,3,4-tetrahydronaphthalen-1-yl)ureido)-N-(2-((2-methoxyethyl)(methyl)-amino)-2-methylpropyl)pyrimidine-2-carboxamide], in experiment [1], the IC50 lay in the range of 1 to 10 nM.
For `COCCN(C)C(C)(C)CNC(=O)c1nc(NC(=O)N[C@H]2CC[C@@H](Oc3ccc4nnc(C(C)(C)OC)n4c3)c3ccccc32)cc(C(C)(C)C)n1` [Example 179, 4-(tert-butyl)-N-(2-((2-methoxyethyl)(methyl)amino)-2-methylmpropyl)-6-(3-((1S,4R)-4-((3-(2-methoxypropan-2-yl)-[1,2,4]triazolo[4,3-a]pyridin-6-yl)oxy)-1,2,3,4-tetrahydronaphthalen-1-yl)ureido)pyrimidine-2-carboxamide], the IC50 in experiment [1] was in the range of 1 to 10 nM.
The same measure, in the same setting: as for `CCOC(C)(C)c1nnc2ccc(O[C@@H]3CC[C@H](NC(=O)Nc4cc(C(C)(C)C)nc(C(=O)NCCN(C)C)n4)c4ccccc43)cn12` [Example 180, 4-(tert-Butyl)-N-(2-(dimethylamino)ethyl)-6-(3-((1S,4R)-4-((3-(2-ethoxypropan-2-yl)-[1,2,4]triazolo[4,3-a]pyridin-6-yl)oxy)-1,2,3,4-tetrahydronaphthalen-1-yl)ureido)pyrimidine-2-carboxamide formate salt], the figure is 1 to 10 nM; as for `COC(C)(C)c1nnc2ccc(O[C@@H]3CC[C@H](NC(=O)Nc4cc(C(=O)NCCN(C)C)nc(C(C)(C)C)c4)c4ccccc43)cn12` [Example 185, 6-(tert-butyl)-N-(2-(dimethylamino)ethyl)-4-(3-((1S,4R)-4-((3-(2-methoxypropan-2-yl)-[1,2,4]triazolo[4,3-a]pyridin-6-yl)oxy)-1,2,3,4-tetrahydronaphthalen-1-yl)ureido)picolinamide], 1 to 10 nM.
On to `COC(C)(C)c1nnc2ccc(O[C@@H]3CC[C@H](NC(=O)Nc4cc(C(=O)NCC(C)(C)N(C)C)nc(C(C)(C)C)c4)c4ccccc43)cn12` [Example 194, 6-(tert-butyl)-N-(2-(dimethylamino)-2-methylpropyl)-4-(3-((1S,4R)-4-((3-(2-methoxypropan-2-yl)-[1,2,4]triazolo[4,3-a]pyridin-6-yl)oxy)-1,2,3,4-tetrahydronaphthalen-1-yl)ureido)picolinamide], for which the IC50 in experiment [1] lay within 1 to 10 nM.
The same measure, in the same setting: as for `COC1CCN(CCNC(=O)c2cc(NC(=O)N[C@H]3CC[C@@H](Oc4ccc5nnc(C(C)(C)C)n5c4)c4ccccc43)cc(C(C)(C)C)n2)CC1` [Example 203, 6-(tert-butyl)-4-(3-((1S,4R)-4-((3-(tert-butyl)-[1,2,4]triazolo[4,3-a]pyridin-6-yl)oxy)-1,2,3,4-tetrahydronaphthalen-1-yl)ureido)-N-(2-(4-methoxypiperidin-1-yl)ethyl)picolinamide], the figure is 1 to 10 nM.
